# Read-outs that look alike come from different tables or passages of the source.
# Legend:
# [1] = tested on: rats; conditions: cited from earlier work
# [2] = tested on: subjects chronically ill with tuberculosis; conditions: chronic dosing schedules, typical tuberculosis doses 500-1000 mg/day; cited from earlier work
# [3] = tested on: subjects with acrophobia; conditions: DCS administered prior to virtual reality therapy sessions, versus placebo; cited from earlier work
# [4] = tested on: Sprague Dawley rats; test: Extinction of fear-potentiated startle in rats with post-extinction training pre-sleep administration; format: in vivo, rat; conditions: higher values signify greater extinction
# Method: Subjects. Twenty male, Sprague Dawley rats (300-350 grams) were used. Rats were placed in cages used to measure the acoustic startle reflex (Cassella, J. V., and Davis, M. “The design and calibration of a startle measurement system”, Physiology & Behavior (1986), 36, pp. 377-383) and, after a 5 minute acclimation period, presented with 50 startle stimuli (50-ms duration, 5-ms rise-decay time), 10 at each of five intensities (95, 100, 105, 110, and 115 dB) in a semi-random order at a 30-s interstimulus interval. The animals were subsequently divided into four groups of five rats, each having similar mean startle amplitudes across the 10 stimuli at the five intensities.
# Fear conditioning and testing. On two consecutive training days, animals were placed in the startle chambers and after a 5-min acclimation period, presented with 10 light shock pairings. The shock was presented during the last 500 ms of the 3,700-ms light at an average intertrial interval of 3 minutes (range, 2-4 min). No further shocks were presented thereafter. Twenty-four hours after the second training day, rats were placed in the startle chamber and presented with 30 95-dB startle stimuli (leaders), followed by the first of 10 startle stimuli presented 3.2 seconds after onset of the light that had previously been paired with a shock, and 10 more startle stimuli alone. The two trial types (light-startle and startle-alone) were presented in an irregular balanced order at a 30-s interstimulus interval. Based on the mean difference in startle amplitude between the mean startle amplitude across the last 10 leaders and the mean startle amplitude across the light-startle trials, a percent fear-potentiated startle was computed as: [(mean difference in startle amplitude between the light-startle and leaders)/mean leaders]×100. The rats were divided into four groups.
# Extinction training with or without sleep deprivation. […] Although sleep was not measured directly, the rats were observed on closed-circuit TV and appeared to sleep (rats tend to sleep in the day, when the lights are on). […]
# [5] = tested on: Mycobacterium tuberculosis strains; conditions: typical Mycobacterium tuberculosis strains; cited from earlier work
# [6] = cited from earlier work
smiles,measurement,setting,value
"N[C@@H]1CON=C1O [DCS, D-cycloserine]",effect on extinction learning,[1]; DCS injected after extinction training,facilitated extinction learning
same,effect on extinction learning,[1]; delay between extinction training and administration of DCS increased to four hours,no significant facilitatory effect
same,recorded side effects,[2],"drowsiness, depression, headache, confusion, tremor, vertigo, and memory difficulties, paresthesias, and seizure"
same,number of therapy sessions required to reach a defined clinical endpoint,[3],significant reduction
same,mean change in percent fear-potentiated startle prior to and after extinction training,"[4]; DCS-DCS group: 15 mg/kg DCS i.p. 15 min before extinction training and again pre-sleep 4 h after training, n=3",176%
same,mean change in percent fear-potentiated startle prior to and after extinction training,"[4]; DCS-Sal group: 15 mg/kg DCS i.p. 15 min before extinction training, saline pre-sleep 4 h after training, n=3",78%
same,mean change in percent fear-potentiated startle prior to and after extinction training,"[4]; Sal-DCS group: saline i.p. 15 min before extinction training, 15 mg/kg DCS i.p. pre-sleep 4 h after training, n=4",164%
same,minimum inhibitory concentrations (MIC) in vitro,[5],6 to 25 mg/L
same,peak serum concentrations,"[6]; child subject, sub-antimicrobial dose less than or equal to 2 mg/kg",less than or equal to 5 μg/mL
same,serum concentrations generally maintained,"[6]; dose of 500 mg/day, chronic treatment of tuberculosis",25 to 30 µg/mL
same,time of peak serum concentrations after dosing,[6]; known oral capsules,3 to 8 h
same,peak serum concentrations,"[6]; sub-antimicrobial dose, less than or equal to 2 mg/kg, substantial variability between subjects",less than or equal to 5 μg/mL

# Source: US7655655B1, “Method for facilitating extinction training using D-cycloserine” (priority 2009, dated 2010)
